Experimental data reported in patent publication US7276519B2, “Thieno[3,2-b]pyridine-6-carbonitriles and thieno[2,3-b]pyridine-5-carbonitriles as protein kinase inhibitors” (Wyeth, priority 2002, dated 2007).
Values joined by “and” are separate entries in the source; they are usually repeats but may differ in a detail not shown here. Equal values may be shown once.

What was measured:
BXPC3 cells = assay: Cell based screen for inhibitors of Raf and/or Mek kinase, BXPC3; conditions: Homo sapiens, BXPC-3, 96 h; Table 4; four days incubation, SRB
Experimental: (§1) Cell Based Screen for Inhibitors of Raf and/or Mek Kinase.
(§2) Cell Lines: Human tumor cell lines LoVo which are known to be growth inhibited by low nM concentrations of a reference standard inhibitor of Ras and human adenocarcinoma cell line CaCo-2, which is known to be growth resistant to the same reference compound.
(§3) Cell Media: RPMI 1640 with 10% Fetal Bovine Serum supplemented with L-glutamine and Pennicilin/Streptomycin. • Compounds: Supplied usually as a 10 mM stock in 100% DMSO. • Normal Saline: 150 mM NaCl • Trichloroacetic Acid (TCA): 50% (w/v) in water • Sulforhodamine B (SRB): 0.4% (w/v) in 1% Acetic Acid • Tris Base: 10 mM in water Methods
(§4) Cells are plated at 2000 cells per well for cell line LoVo, 1,750 cells for cell line BXPC3, 1,000 cells for cell line WM266–4 and 1500 cells for cell line CaCo-2 in 96 well plates. Cells are plated in media (200 μl) and allowed to adhere overnight at 37° C. At 24 hours post plating, compounds are added directly at a volume of 0.5 μl. For the qualitative screen (compounds screened at 25 μM) compound is added directly to cells. For the quantitative screen, compound is first diluted in DMSO to generate concentrations of compound or reference standard of: 1, 5, 10 and 25 μM. It is advisable to make the dilutions in an identical 96 well plate so that compounds can be added using a multichannel micropipettor set at 0.5 μl. The cells are then incubated for four days after which the media is removed using a 12 well manifold by first tipping the plate forward at a 45 degree angle and then inserting the manifold in an upright orientation to prevent the tips of the manifold from disturbing cells at the bottom of the plate. 200 μl of normal saline is then added to each well using an 8 well multichannel pipettor, followed by the careful addition of 50 μl of 50% TCA. The plates are then incubated for 2 hours at 4° C., after which the supernatant is removed using the same technique as above and the plated washed twice with 200 μl water. The plates are then air dried and 50 μl of SRB stock solution is carefully added so that the entire bottom of each well is covered. This again can be used using an 8 well multichannel pipettor. The SRB is incubated with fixed cells for 15 minutes at room temperature after which the SRB is removed with the manifold as described above and the plates washed twice with 350 μl of 1% acetic acid per well each time. The plates are then air dried after which the bound SRB is released from protein by the addition of 200 μl of Tris base. Resolubilizing the SRB is aided by placing the plates on a rotator for 15–30 minutes. The absorbance of each well is determined at 550 or 562 nm using a microtiter plate reader.
(§5) Each compound or dilution thereof is performed in triplicate. Outliers are identified by visual inspection of the data. Each plate should have a “0” control (vehicle only).
(§6) Quantitative Assay: A standard curve is constructed by plotting the concentration of compound against the average absorbance calculated at that concentration. A curve is plotted and the concentration at which the curve passes through the 50% the absorbance mark seen in the “0” control well is the IC50 calculated for that compound. Multiple entries for a given compound indicate that it was tested multiple times.

LoVo cells = assay: Cell based screen for inhibitors of Raf and/or Mek kinase, LoVo; design: species or system human; conditions: Table 4, four days incubation, SRB
Experimental: as §1, §2, §3, §4, §5, §6

WM266-4 cells = assay: Cell based screen for inhibitors of Raf and/or Mek kinase, WM266-4; conditions: Table 4, four days incubation, SRB
Experimental: as §1, §2, §3, §4, §5, §6

[1] = target: T1, Raf-1 (c-Raf) / GST-MEK1 (Raf and/or Mek kinase); assay: Raf/Mek kinase cascade assay; assay type: biochemical, human; conditions: Table 4; read-out: Raf/MEK enzyme IC50
T1 construct: Sf9 insect cell lysate containing full length 6his-tagged recombinant human c-Raf; fused on or other part: 6His tag on c-Raf; GST on MEK1
Experimental: Raf/Mek Kinase Cascade Assay
(Specific Activity: ˜200 U/ml). Human Non-active Mek-1-GST and human GST-MAP kinase recombinant proteins produced in E. coli).
Stock Solutions Raf/Mek Cascade Assay:
• 1. Assay Dilution Buffer (ADB): 20 mM MOPS, pH 7.2, 25 mM β-glycerol phosphate, 5 mM EGTA, 1 mM sodium orthovanadate, 1 mM dithiothreitol. • 2. Magnesium/ATP Cocktail: 500 μM cold ATP and 75 mM magnesium chloride in ADB. • 3. Active Kinase: Human Active c-Raf: Use at 0.4 U per assay point. • 4. Non-active GST-MEK1: Use at 0.1 μg per assay point. • 5. Non-active GST-p42 MAP Kinase: Use at 1.0 μg per assay point. Stock Solutions ELISA: • 1. TBST—Tris (50 mM, pH 7.5), NaCl (150 mM), Tween-20 (0.05%) • 2. Superblock (Pierce) • 3. Anti-GST Ab (Pharmacia) • 4. Anti-Phospho MAPK (Sigma) • 5. Anti-Mouse Ab/Europium conjugate (Wallac) Assay Procedure: First Stage: c-Raf Dependent Activation of GST-MEK and GST-MAPK • 1. Add […] of ADB per assay (i.e. per well of a 96 well plate) • 2. Add […] of 0.5 mM cold ATP and 75 mM magnesium chloride in ADB. • 3. Add 2 ml of c-Raf (0.4 U/assay), in conjunction with 1.6 ml non-active MEK1 ([…]). • 4. Add 4 ml of non-active GST-p42 MAP Kinase ([…]). • 5. Incubate for 60 minutes at 30° C. in a shaking incubator. • 6. Transfer this mixture to an anti-GST Ab coated 96 well plate (Nunc Immunosorb plates coated o/n with a-GST, then blocked with Pierce Superblock). • 7. Incubate for 60 minutes at 30° C. in a shaking incubator • 8. Wash 3× with TBST, add Anti-Phospho MAPK (Sigma) (1:3000) • 9. Incubate for 60 minutes at 30° C. in a shaking incubator • 10. Wash 3× with TBST, add Anti-Mouse Ab/Europium conjugate (Wallac) (1:500) • 11. Incubate for 60 minutes at 30° C. in a shaking incubator • 12. Wash 3× with TBST, Read plates in Wallac Victor model Plate Reader. • 13. Collect data analyze in Excel for single point and IC50 determinations.
Single point assay—% inhibition at 10 mg/ml (% Inhibition=1—cpd.treated sample/untreated control). IC50 determinations—done on compounds from single point assays with >80% inhibition. Typically, the Raf/Mek assay is run at compound concentrations from 10 μM to 1 nM in half log dilutions. (% inhibition is determined for each compound concentration). Multiple entries for a given compound indicate that it was tested multiple times. The results obtained measure Raf and/or Mek kinase inhibition, and for representative compounds of this invention are listed in Table 4.

Row | SMILES | IC50 (BXPC3 cells) | melting point | IC50 (LoVo cells; Homo sapiens, LoVo, 96 h) | IC50 [1] | IC50 (LoVo cells) | IC50 (WM266-4 cells; Homo sapiens, WM 266-4, 96 h) | IC50 (WM266-4 cells)
1 | Cn1ccnc1Sc1ccc(Nc2c(C#N)cnc3cc(C#CCCN4CCOCC4)sc23)cc1Cl [Example 86] | 350 nM | 195 to 200 °C | 94 nM | 221 nM and 332 nM | 160 nM | 350 nM | 
2 | Cn1ccnc1Sc1ccc(Nc2c(C#N)cnc3cc(-c4ccc(CN5CCOCC5)cc4)sc23)cc1Cl [Example 83, 7-({3-chloro-4-[(1-methyl-1H-imidazol-2-yl)thio]phenyl}amino)-2-[4-(morpholin-4-ylmethyl)phenyl]thieno[3,2-b]pyridine-6-carbonitrile] | > 1000 nM | 150 to 152 °C | 36 nM | 41 nM | 38 nM | > 1000 nM | 
3 | CN(C)CC#Cc1cc2ncc(C#N)c(Nc3ccc(Sc4nccn4C)c(Cl)c3)c2s1 [Example 91, 7-({3-chloro-4-[(1-methyl-1H-imidazol-2-yl)thio]phenyl}amino)-2-[3-(dimethylamino)prop-1-ynyl]thieno[3,2-b]pyridine-6-carbonitrile] | 92 nM | 204 to 207 °C | 64 nM | 475 nM |  | 95 nM | 85 nM
4 | CCN(CC)CC#Cc1cc2ncc(C#N)c(Nc3ccc(Sc4nccn4C)c(Cl)c3)c2s1 [Example 118, 7-({3-chloro-4-[(1-methyl-1H-imidazol-2-yl)thio]phenyl}amino)-2-[3-(diethylamino)prop-1-ynyl]thieno[3,2-b]pyridine-6-carbonitrile] | 71 nM | 190 to 194 °C | 73 nM |  |  |  | 

These reach a lower IC50 (BXPC3 cells). Values come first.

Row | IC50 (BXPC3 cells) | melting point | IC50 (LoVo cells; Homo sapiens, LoVo, 96 h) | IC50 [1] | IC50 (LoVo cells) | SMILES | IC50 (WM266-4 cells; Homo sapiens, WM 266-4, 96 h) | IC50 (WM266-4 cells)
5 | 41 nM | 221 to 224 °C | 39 nM | 4.5 nM |  | CN1CCN(Cc2ccc(-c3cc4ncc(C#N)c(Nc5ccc(Sc6nccn6C)c(Cl)c5)c4s3)cc2)CC1 [Example 99, 7-({3-chloro-4-[(1-methyl-1H-imidazol-2-yl)thio]phenyl}amino)-2-{4-[(4-methylpiperazin-1-yl)methyl]phenyl}thieno[3,2-b]pyridine-6-carbonitrile] | > 1000 nM | 
6 | 38 nM | 200 to 203 °C | 33 nM | 5.6 nM |  | CCN(CC)Cc1ccc(-c2cc3ncc(C#N)c(Nc4ccc(Sc5nccn5C)c(Cl)c4)c3s2)cc1 [Example 98, 7-({3-chloro-4-[(1-methyl-1H-imidazol-2-yl)thio]phenyl}amino)-2-{4-[(diethylamino)methyl]phenyl}thieno[3,2-b]pyridine-6-carbonitrile] | 40 nM | 
